How the values were obtained:
hot flashes = assay: alleviation of hot flashes in a postmenopausal breast cancer patient treated with tamoxifen citrate; type: in vivo, human; conditions: postmenopausal patient on tamoxifen citrate (20 mg tamoxifen free base)
Experimental: A postmenopausal patient is being treated in the adjuvant setting for breast cancer with the SERM tamoxifen citrate (dosage of 20 mg tamoxifen free base). They are experiencing hot flashes as a result of their treatment.

rat uterus = conditions: cited from earlier work; for estrogenic stimulation on the rat uterus: compound alone

Row | SMILES | alleviation of hot flashes (hot flashes; 20 mg once daily) | alleviation of hot flashes (hot flashes; dosage adjusted to 50 mg) | estrogenic stimulation on the rat uterus (rat uterus) | antagonism of the estrogenic effect of estradiol on the uterus (rat uterus; with estradiol)
1 | CCNCCc1ccc(CN(CC)c2cc(OC)ccc2[C@@H]2CCc3cc(O)ccc3C2)cc1 [compound of formula I] | partial alleviation of their symptoms | almost complete alleviation of their hot flushes | no estrogenic stimulation | could antagonize the estrogenic effect of estradiol on the uterus and bring it back to control levels
2 | O=C(c1ccc(OCCN2CCCCC2)cc1)c1c(-c2ccc(O)cc2)sc2cc(O)ccc12 [raloxifene, reference compound] |  |  | did stimulate the uterus | 
3 | CC/C(=C(\c1ccccc1)c1ccc(OCCN(C)C)cc1)c1ccccc1 [tamoxifen, reference compound] |  |  | did stimulate the uterus | 
